Assay results: patent US20250314640A1, “SYSTEMS AND METHODS FOR HIGH THROUGHPUT SINGLE MOLECULE TRACKING IN LIVING CELLS” (EIKON THERAPEUTICS, INC., priority 2022, published 2025)
Entries after “also recorded” stand apart in the source; their conditions may differ. Read-outs that look alike come from different tables or passages of the source. Blank lines part the entries; values can stand above or below the molecule they belong to.

How the values were obtained:
Estrogen Receptor (ER) = molecular target: T1, Estrogen Receptor (ER) (Homo sapiens, UniProt P03372); test: htSMT of HaloTag-ER in U2OS cells (fbound, Dfree; bioactive screen and dose titration); type: cell-based; conditions: for change in fbound of ER: follow-up experiments after the screen (FIG. 12B, 14A, 16), 100 nM in FIG. 14A
T1 construct: expressed in transfected cells
T1 sequence (P03372 1-595): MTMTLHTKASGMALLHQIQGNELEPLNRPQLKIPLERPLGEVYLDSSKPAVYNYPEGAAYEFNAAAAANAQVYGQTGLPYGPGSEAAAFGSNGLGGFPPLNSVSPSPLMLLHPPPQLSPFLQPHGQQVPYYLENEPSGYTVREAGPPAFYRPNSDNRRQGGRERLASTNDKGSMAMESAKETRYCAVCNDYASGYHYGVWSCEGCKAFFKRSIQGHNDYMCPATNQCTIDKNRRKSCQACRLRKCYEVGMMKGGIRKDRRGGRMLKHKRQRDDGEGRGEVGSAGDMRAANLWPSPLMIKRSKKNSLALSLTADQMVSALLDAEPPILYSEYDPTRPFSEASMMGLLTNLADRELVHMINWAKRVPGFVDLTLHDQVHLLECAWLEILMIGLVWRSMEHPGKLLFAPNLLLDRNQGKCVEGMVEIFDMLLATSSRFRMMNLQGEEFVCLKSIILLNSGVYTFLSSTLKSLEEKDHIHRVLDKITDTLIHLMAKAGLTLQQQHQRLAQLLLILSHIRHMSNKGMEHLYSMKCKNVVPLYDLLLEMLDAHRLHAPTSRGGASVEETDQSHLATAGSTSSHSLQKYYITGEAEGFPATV

[1] = molecular target: T2, glucocorticoid receptor (GR) (Homo sapiens, UniProt P04150); test: htSMT of Halo-GR in U2OS cells; type: cell-based; conditions: 1 μM antagonist, singly or co-administered with the cognate agonist; FIG. 34D
T2 construct: Because U2OS cells express GR endogenously, HaloTag was inserted right before the stop codon of endogenous NR3C1; endogenous in cells; host or cells: U2OS, CRISPR/Cas9 knock-in at the endogenous NR3C1 locus
T2 sequence (P04150 1-777): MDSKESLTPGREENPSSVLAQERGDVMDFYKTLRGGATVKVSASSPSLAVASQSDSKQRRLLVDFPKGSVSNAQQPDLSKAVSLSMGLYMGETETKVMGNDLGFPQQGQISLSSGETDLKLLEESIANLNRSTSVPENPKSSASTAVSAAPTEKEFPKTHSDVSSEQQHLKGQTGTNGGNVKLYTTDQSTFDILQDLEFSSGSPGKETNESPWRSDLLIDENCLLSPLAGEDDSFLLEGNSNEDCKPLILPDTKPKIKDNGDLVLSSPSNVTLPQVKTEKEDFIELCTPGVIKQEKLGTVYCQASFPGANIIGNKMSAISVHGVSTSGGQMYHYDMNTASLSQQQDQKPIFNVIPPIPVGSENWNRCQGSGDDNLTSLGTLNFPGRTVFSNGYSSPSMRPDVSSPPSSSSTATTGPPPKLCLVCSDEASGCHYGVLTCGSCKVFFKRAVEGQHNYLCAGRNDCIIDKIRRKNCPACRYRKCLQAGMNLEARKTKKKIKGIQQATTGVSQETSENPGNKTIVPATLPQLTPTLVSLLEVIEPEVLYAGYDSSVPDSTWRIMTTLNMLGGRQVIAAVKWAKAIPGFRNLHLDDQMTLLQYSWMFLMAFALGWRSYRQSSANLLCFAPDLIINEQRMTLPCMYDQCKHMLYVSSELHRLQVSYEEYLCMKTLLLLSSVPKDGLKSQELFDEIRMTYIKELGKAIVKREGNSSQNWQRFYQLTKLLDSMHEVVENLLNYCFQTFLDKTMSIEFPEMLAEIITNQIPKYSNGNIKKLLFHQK
Description: Thermo Fisher) at 500 μg/mL, then clonally isolated. […] Between three and six clones were subsequently tested using SMT conditions for response to a control compound, and the most homogenous clones were subsequently expanded for further testing. Unless otherwise specified, all experiments are with a single, clonally isolated cell line. Because U2OS cells express GR endogenously, HaloTag was inserted right before the stop codon of endogenous NR3C1 via homology-directed repair using CRISPR/Cas9. The HaloTag knock-in was validated by imaging using HTL-JF646 staining and through DNA sequencing.
Where appropriate, compounds were serially diluted in an Echo Qualified 384-Well Low Dead Volume Source Microplate (0018544, Beckman Coulter) to generate dose-titration source material.

androgen receptor (AR) = androgen receptor (AR) (Homo sapiens, UniProt P10275)
ER [2] = molecular target: T3, ER (Homo sapiens, UniProt P03372); test: kinetic SMT (kSMT) of ER after compound addition; type: cell-based; parameters: expressed in transfected cells; conditions: for t½ of increase in fbound: 100 nM; for time course of the overall effect on fbound: up to four-hour window
T3 sequence (P03372 1-595): T1 sequence (P03372 1-595)

ER [3] = molecular target: T3, ER; test: western blot of ER after fulvestrant treatment; type: cell-based; parameters: host or cells: Halo-ER U2OS (transfected fusion), or MCF7 / T47d (endogenous ER); conditions: fulvestrant 24 hours prior to lysis; MCF7, T47d, U2OS Halo-ER; FIG. 20A
ER [4] = molecular target: T3, ER; test: residence time imaging of ER (track length survival); type: cell-based; parameters: expressed in transfected cells; conditions: 100 nM HSP90 inhibition, FIG. 16E; normalized to DMSO

androgen receptor (AR), sequence (P10275 whole entry): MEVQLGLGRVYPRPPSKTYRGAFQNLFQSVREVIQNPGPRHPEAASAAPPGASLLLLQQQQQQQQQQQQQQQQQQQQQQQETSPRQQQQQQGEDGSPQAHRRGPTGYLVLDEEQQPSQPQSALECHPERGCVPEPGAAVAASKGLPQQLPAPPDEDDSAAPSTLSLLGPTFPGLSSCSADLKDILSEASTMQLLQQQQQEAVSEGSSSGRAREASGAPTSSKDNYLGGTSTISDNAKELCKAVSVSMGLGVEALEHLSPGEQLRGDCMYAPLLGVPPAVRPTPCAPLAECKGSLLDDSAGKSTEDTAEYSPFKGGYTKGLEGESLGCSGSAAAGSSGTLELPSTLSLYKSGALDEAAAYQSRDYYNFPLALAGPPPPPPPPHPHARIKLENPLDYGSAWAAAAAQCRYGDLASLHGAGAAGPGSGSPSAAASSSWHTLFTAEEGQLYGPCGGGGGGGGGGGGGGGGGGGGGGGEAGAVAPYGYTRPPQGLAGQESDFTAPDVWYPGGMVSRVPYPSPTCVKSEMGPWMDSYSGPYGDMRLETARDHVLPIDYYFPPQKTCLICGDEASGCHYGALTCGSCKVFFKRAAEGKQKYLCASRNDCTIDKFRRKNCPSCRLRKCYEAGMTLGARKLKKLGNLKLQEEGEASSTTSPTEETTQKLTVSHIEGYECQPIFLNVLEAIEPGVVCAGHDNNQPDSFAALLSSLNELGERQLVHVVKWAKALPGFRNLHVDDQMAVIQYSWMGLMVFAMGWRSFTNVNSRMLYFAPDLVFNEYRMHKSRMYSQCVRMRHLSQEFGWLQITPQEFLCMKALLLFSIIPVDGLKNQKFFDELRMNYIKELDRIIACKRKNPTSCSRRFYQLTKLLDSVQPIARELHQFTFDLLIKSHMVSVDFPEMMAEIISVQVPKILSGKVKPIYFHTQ

Molecule: 4-hydroxytamoxifen
change in fbound of ER in bioactive screen (Estrogen Receptor (ER)): significantly increased fbound
maximal increase in ER fbound (Estrogen Receptor (ER)): lower maximal increases in fbound

Molecule: CC(O)c1cc(C(=O)N[C@@H](C)Cn2ccc(-c3ccc(C#N)c(Cl)c3)n2)[nH]n1 (stereo partly drawn) [Darolutamide]
change in AR chromatin binding (fbound) (androgen receptor (AR)): decrease in chromatin binding

Molecule: CC(C)C[C@H](NC(=O)[C@H](Cc1ccccc1)NC(=O)c1cnccn1)B(O)O [bortezomib]
time course of the overall effect on fbound (ER [2]): slowly increasing over the four-hour measurement window

Molecule: CC(C)C[C@H](NC(=O)[C@H](CCc1ccccc1)NC(=O)CN1CCOCC1)C(=O)N[C@@H](Cc1ccccc1)C(=O)N[C@@H](CC(C)C)C(=O)[C@@]1(C)CO1 [carfilzomib]
time course of the overall effect on fbound (ER [2]): slowly increasing over the four-hour measurement window

Second part, led by results:

change in GR chromatin binding (fbound) [1]: decrease in chromatin binding
Molecule: CN(C)c1ccc(C(c2ccc(N(C)C)cc2)c2cc([N+](=O)[O-])ccc2Cl)cc1 [AL082D06]

change in fbound of ER (Estrogen Receptor (ER)): increase in fbound
t½ of increase in fbound (ER [2]): 17.5 min
time course of the overall effect on fbound (ER [2]): reached a plateau after an hour
Molecule: COc1cccc(-c2cc(F)ccc2[C@H]2Cc3nc(N)nc(C)c3C(=O)N2)n1 [HSP990]

degradation of ER (ER [3]): leads to the degradation of ER
Molecule: C[C@]12CC[C@@H]3c4ccc(O)cc4C[C@@H](CCCCCCCCC[S+]([O-])CCCC(F)(F)C(F)(F)F)[C@H]3[C@@H]1CC[C@@H]2O (stereo partly drawn) [fulvestrant]
change in fbound of ER in bioactive screen (Estrogen Receptor (ER); 1 μM compound versus DMSO, 5,067 molecules, two replicates): increase in fbound; also recorded: significantly increased fbound

change in fbound of ER (Estrogen Receptor (ER)): increase in fbound
t½ of increase in fbound (ER [2]): 19.3 min
time course of the overall effect on fbound (ER [2]): reached a plateau after an hour
Molecule: CC(C)c1cc(-c2n[nH]c(=O)n2-c2ccc3c(ccn3C)c2)c(O)cc1O [ganetespib]
decrease in the total number long binding events (ER [4]): four
